Results from the supplement of paper PMC10307832.

Assays:
Assay in all cases: relative viability (nuclei count vs DMSO), 5 days (fraction); higher = more cells survive
R406 + Foretinib = compound: COc1cc(Nc2ncc(F)c(Nc3ccc4c(n3)NC(=O)C(C)(C)O4)n2)cc(OC)c1OC [R406] + COc1cc2c(Oc3ccc(NC(=O)C4(C(=O)Nc5ccc(F)cc5)CC4)cc3F)ccnc2cc1OCCCN1CCOCC1 [Foretinib] (partner 0.25 µM)
Outline: (§1)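 Cells from lung cancer lines were seeded into 1536-well plates and, one day later, dosed by pin tool. Treatments were either a single drug or a fixed dose of an anchor drug with five library-drug doses (not always all listed) in √10 steps. After 5 days, nuclei were stained in a one-step fixation (final 0.05% Triton X-100, 1% formaldehyde, 1 ug/ml Hoechst) and counted on 4× images, and relative viability is the treated-to-vehicle nuclei ratio, as the median of duplicate plates.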

R406 + Lapatinib = compound: COc1cc(Nc2ncc(F)c(Nc3ccc4c(n3)NC(=O)C(C)(C)O4)n2)cc(OC)c1OC [R406] + CS(=O)(=O)CCNCc1ccc(-c2ccc3ncnc(Nc4ccc(OCc5cccc(F)c5)c(Cl)c4)c3c2)o1 [Lapatinib] (partner 2 µM)
Outline: as §1

Daporinad + AZD7762 = compound: O=C(/C=C/c1cccnc1)NCCCCC1CCN(C(=O)c2ccccc2)CC1 [Daporinad] + NC(=O)Nc1cc(-c2cccc(F)c2)sc1C(=O)N[C@H]1CCCNC1 [AZD7762] (partner 0.2 µM)
Outline: as §1

Daporinad + OSI-027 = compound: O=C(/C=C/c1cccnc1)NCCCCC1CCN(C(=O)c2ccccc2)CC1 [Daporinad] + COc1cccc2cc(-c3nc([C@H]4CC[C@H](C(=O)O)CC4)n4ncnc(N)c34)[nH]c12 [OSI-027] (partner 0.5 µM)
Outline: as §1

| Cell Line | relative viability (R406 + Foretinib; first compound 0.08 µM) | relative viability (R406 + Foretinib; first compound 0.253 µM) | relative viability (R406 + Foretinib; first compound 0.8 µM) | relative viability (R406 + Foretinib; first compound 2.53 µM) | relative viability (R406 + Foretinib; first compound 8 µM) | relative viability (R406 + Lapatinib; first compound 0.08 µM) | relative viability (R406 + Lapatinib; first compound 0.253 µM) | relative viability (R406 + Lapatinib; first compound 0.8 µM) | relative viability (R406 + Lapatinib; first compound 2.53 µM) | relative viability (R406 + Lapatinib; first compound 8 µM) | relative viability (Daporinad + AZD7762; first compound 0.0005 µM) | relative viability (Daporinad + AZD7762; first compound 0.001581 µM) | relative viability (Daporinad + AZD7762; first compound 0.005 µM) | relative viability (Daporinad + AZD7762; first compound 0.01581 µM) | relative viability (Daporinad + OSI-027; first compound 0.0005 µM) | relative viability (Daporinad + OSI-027; first compound 0.001581 µM) | relative viability (Daporinad + OSI-027; first compound 0.005 µM) | relative viability (Daporinad + OSI-027; first compound 0.01581 µM) |
| --- | --- | --- | --- | --- | --- | --- | --- | --- | --- | --- | --- | --- | --- | --- | --- | --- | --- | --- |
| NCI-H1437 | 1.22 | 1.3 | 1.26 | 1.27 | 1.34 | 0.689 | 1.01 | 1.07 | 0.265 | 0.328 | 1.12 | 1.16 | 1.14 | 1.09 | 0.851 | 0.885 | 0.885 | 0.882 |
| NCI-H1651 | 0.875 | 0.83 | 0.939 | 0.596 | 0.679 | 0.694 | 0.87 | 0.944 | 0.234 | 0.275 | 0.486 | 0.475 | 0.554 | 0.477 | 0.747 | 0.767 | 0.744 | 0.604 |
| NCI-H1666 | 0.926 | 1.07 | 0.977 | 0.869 | 0.59 | 0.784 | 0.79 | 0.708 | 0.452 | 0.336 | 0.773 | 0.874 | 0.941 | 0.851 | 0.822 | 0.989 | 0.826 | 0.896 |
| NCI-H1734 | 0.812 | 1.07 | 0.997 | 0.52 | 0.448 | 1.03 | 1.1 | 1.1 | 0.426 | 0.621 | 0.546 | 0.521 | 0.51 | 0.328 | 0.569 | 0.676 | 0.674 | 0.527 |
| NCI-H1755 | 0.923 | 0.946 | 0.894 | 0.677 | 0.598 | 1.03 | 1.07 | 1.04 | 0.678 | 0.329 | 0.429 | 0.43 | 0.462 | 0.5 | 0.628 | 0.758 | 0.761 | 0.778 |
| NCI-H1793 | 0.582 | 0.641 | 0.809 | 0.464 | 0.139 | 0.823 | 0.692 | 0.641 | 0.144 | 0.207 | 0.467 | 0.511 | 0.522 | 0.764 | 0.25 | 0.252 | 0.343 | 0.254 |
| NCI-H1915 | 0.983 | 1.16 | 1.11 | – | 0.989 | 0.991 | 1.09 | 1.03 | 0.806 | 0.778 | 0.667 | 0.742 | 0.716 | 0.71 | 0.613 | 0.641 | 0.719 | 0.712 |
| NCI-H1944 | 0.867 | 0.93 | 0.966 | 0.756 | 0.682 | 0.756 | 0.862 | 0.855 | 0.559 | 0.614 | 0.474 | 0.453 | 0.6 | 0.579 | 0.447 | 0.422 | 0.527 | 0.517 |
| NCI-H1975 | 0.9 | 1.05 | 0.986 | 0.492 | 0.227 | 0.779 | 1.01 | 1.14 | 0.221 | 0.169 | 0.61 | 0.752 | 0.729 | 0.747 | 0.753 | 0.738 | 0.8 | 0.672 |
| NCI-H1993 | 0.72 | 0.756 | 0.846 | 0.642 | 0.577 | 0.882 | 0.964 | 0.829 | 0.43 | 0.646 | 0.645 | 0.774 | 0.787 | 0.962 | 0.618 | 0.508 | 0.55 | 0.542 |
| NCI-H2085 | 0.847 | 1.08 | 0.973 | 0.912 | 0.289 | 0.783 | 0.851 | 0.894 | 0.52 | 0.591 | 0.879 | – | 1.03 | 1.1 | 0.695 | 0.773 | 0.817 | 0.852 |
| NCI-H2087 | 1.2 | 1.05 | 1.04 | – | 0.609 | 0.826 | 1.26 | 1.36 | 0.254 | 0.966 | 1.21 | 1.41 | 1.37 | 1.17 | 0.474 | 0.693 | 0.694 | 0.538 |
| NCI-H2126 | 1.16 | 0.824 | 1.26 | 1.04 | 1 | 0.763 | 0.798 | 0.801 | 0.772 | 0.737 | 1.1 | 0.976 | 0.992 | 1.04 | 0.718 | 0.592 | 0.689 | 0.756 |
| NCI-H2170 | 0.964 | 1.11 | 1 | 0.916 | 0.814 | 0.253 | 0.25 | 0.247 | 0.272 | 0.258 | 0.807 | 0.974 | 0.979 | 0.92 | 0.66 | 0.734 | 0.793 | 0.699 |
| NCI-H2347 | 1.11 | 1.09 | 1.29 | 0.61 | 0.348 | 1.01 | 0.968 | 0.958 | 0.905 | 0.801 | 0.785 | 0.814 | 0.726 | 0.547 | 0.463 | 0.377 | 0.335 | 0.489 |
| NCI-H2405 | 0.961 | 1.15 | 1.11 | 0.934 | 0.775 | 0.98 | 1.14 | 1.13 | 0.269 | 0.234 | 0.786 | 0.856 | 0.792 | 0.357 | 0.698 | 0.645 | 0.724 | 0.626 |
| NCI-H3122 | 0.962 | 0.959 | 0.931 | – | 0.887 | 1.01 | 1.06 | 0.981 | 0.969 | 0.934 | 0.978 | 1.05 | 1.09 | 0.825 | 0.851 | 1.18 | 0.98 | 0.845 |
| PC-3 [JPC-3] | 0.981 | 1.08 | 1.09 | 0.827 | 0.372 | 0.457 | 0.501 | 0.503 | 0.406 | 0.418 | 0.734 | 0.829 | 0.9 | 0.836 | 0.802 | 0.707 | 0.874 | 0.823 |
| PC-14 | 0.919 | 0.941 | 0.97 | 0.875 | 0.635 | 0.302 | 0.442 | 0.382 | 0.3 | 0.294 | 0.22 | 0.363 | 0.362 | 0.45 | 0.708 | 1.04 | 0.917 | 0.604 |
| RERF-LC-KJ | 0.937 | 0.951 | 0.997 | 0.785 | 0.809 | 0.682 | 0.876 | 1.01 | 0.761 | 0.794 | – | 1.2 | 1.14 | 1.11 | 0.541 | 0.63 | 0.648 | 0.612 |
